According to patent US20080045451A1, “Novel thymidylate synthase mutants” (priority 2000, published 2008):

Experiments:
3T3 fibroblasts = test: Cytotoxicity of 5-FU in 3T3 fibroblasts with or without PTD-4-TSD254E fusion protein (Hoechst 33342); assay type: cell-based; settings: 24 h
Experimental: 3T3 fibroblasts cells (available by the American Type […] Collection (ATCC, Rockville, Md., USA) were seeded with a cell density of 1×10^4 cells per well into 96-well-cell culture plates. DMEM medium with 10% fetal calve serum is used as cell culture medium, and cells are cultured in a CO2-incubator at 37° C. and 5% CO2. The cell culture medium is aspirated after 24 hours and substituted by 200 μL/well of the test assay and cells are incubated for another 24 hours. Subsequently the portion of viable cells was determined as described below. The test assays are composed as follows:
Controls without 5-FU and without PTD-4-TSD2S4E-fusion protein: 200 μL/well of DMEM with 10%.fetal calve serum […]
After completion of the 24-hour treatment of the cells in the control- or test assaysas described above, the medium is removed from the 96-well-plates and substituted by 200 μL/well DMEM medium with 10% fetal calve serum and 10 μg/mL of the DNA-binding fluorescent dye H33342 (Engelmann et al., 2001). […] Subsequently, 100 μL well PBS is added and the fluorescence is quantified at an […]. The intensity of the fluorescence signal is a measure for the number of viable cells. […] The fluorescence intensity of these samples is set as 100%. […] The ED50-values were calculated using the nonlinear regression. […]

[1] = system: primary human gingival fibroblasts; test: Cytotoxicity of 5-FU in primary human gingival fibroblasts with or without PTD-4-TSD254E fusion protein (Hoechst 33342); assay type: cell-based; settings: 10 mM 5-FU, 24 h, without PTD-4-TSD254E, FIG. 7
Experimental: After completion of the 24-hour treatment of the cells in the control- or test assaysas described above, the medium is removed from the 96-well-plates and substituted by 200 μL/well DMEM medium with 10% fetal calve serum and 10 μg/mL of the DNA-binding fluorescent dye H33342 (Engelmann et al., 2001). The plates are kept at 37° C. for 30 minutes and are then washed twice with each 100 μL/well phosphaste-buffered sodium chloride solution (PBS, “phosphate buffered saline”). Subsequently, 100 μL well PBS is added and the fluorescence is quantified at an […]. The intensity of the fluorescence signal is a measure for the number of viable cells. The fluorescence background signal (dye incubation without cells) is subtracted from the raw data of the fluorescence readings and the calculation of the %-share of viable cells is made related to the fluorescence reading of cells, which were not treated with 5-FU. The fluorescence intensity of these samples is set as 100%. The dosage of 5-FU that kills 50% of the cells (ED50), is determined using the same method. […] The ED50-values were calculated using the nonlinear regression. This method to determine the ED50 has been already described (Engelmann et al., 2001). […]

[2] = Ho et al., 2001; cited from earlier work

Compound	survival of cells (3T3 fibroblasts; 2.5 μM 5-FU, absence of PTD-4-TSD254E, FIG. 6)	EC50 (3T3 fibroblasts; 3T3-fibroblast cell line, read-out: ED50 (dosage of 5-FU that kills 50% of the cells))	survival of cells [1]	transduction activity in comparison to the original TAT sequence [2]
O=c1[nH]cc(F)c(=O)[nH]1 [Mutant 5-FU, 5-fluorouracil]	50%	2.5 µM	70%	
PTD-4: optimized TAT sequence YARAAARQARA (SEQ ID NO: 6), protein transduction domain 4 (synthetic TAT sequence optimized by random mutagenisis)				33 fold
